Assay: xn = mol fraction of the nth substance listed
Details: 102 kPa, Liquid; for speed of sound: Frequency=5 MHz, Single path-length method; for mass density: Vibrating tube method

CCCC(=O)[O-].C[NH2+]CCO [N-methyl-2-hydroxyethylammonium butanoate] + O
Details | mass density, 318.15 K [kg/m3] | mass density, 323.15 K [kg/m3] | mass density, 328.15 K [kg/m3] | mass density, 333.15 K [kg/m3] | speed of sound, 318.15 K [m/s] | speed of sound, 323.15 K [m/s] | speed of sound, 328.15 K [m/s] | speed of sound, 333.15 K [m/s]
x1 = 0.0199 | 1001.5 | 997.6 | 993.7 | 989.9 | 1647.8 | 1648.4 | 1648.9 | 1649.5
x1 = 0.0497 | 1024.6 | 1022 | 1019.4 | 1016.8 | 1732.5 | 1725 | 1717.5 | 1709.9
x1 = 0.1005 | 1029.1 | 1026.2 | 1023.2 | 1020.3 | 1734.2 | 1724.5 | 1714.7 | 1704.9
x1 = 0.196 | 1038.3 | 1035.2 | 1032.2 | 1029.1 | 1683.1 | 1669 | 1654.9 | 1640.8
x1 = 0.3008 | 1040.1 | 1036.9 | 1033.8 | 1030.7 | 1671.7 | 1656.6 | 1641.6 | 1626.5
x1 = 0.4005 | 1036.4 | 1033.3 | 1030.1 | 1026.9 | 1630.6 | 1614.8 | 1599 | 1583.1
x1 = 0.509 | 1034 | 1030.9 | 1027.7 | 1024.5 | 1610.7 | 1594.8 | 1579 | 1563.1
x1 = 0.5968 | 1032.1 | 1028.9 | 1025.6 | 1022.4 | 1596.6 | 1580.8 | 1565.1 | 1549.3
x1 = 0.8069 | 1028.1 | 1024.9 | 1021.6 | 1018.3 | 1566.8 | 1550.9 | 1535 | 1519.1
x1 = 1 | 1021.9 | 1018.5 | 1015.2 | 1011.9 | 1499.4 | 1481.3 | 1467.2 | 1451.2
